Reference: ChEMBL document CHEMBL1201861, “Genomics of Drug Sensitity in Cancer screening data, Wellcome Trust Sanger Institute”

Legend:
Type in all cases: functional, cell-based
HSC-2 = test: cells; conditions: Homo sapiens;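 further: growth inhibition of human HSC-2 cells, read out by a cell viability assay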
Description: SANGER: Inhibition of human HSC-2 cell growth in a cell viability assay.

SW1088 = test: cells; conditions: Homo sapiens;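 further: growth inhibition of human SW1088 cells, read out by a cell viability assay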
Description: SANGER: Inhibition of human SW1088 cell growth in a cell viability assay.

ACHN = test: cells; conditions: Homo sapiens;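 further: cell viability read-out used to gauge how strongly growth of human ACHN cells is suppressed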
Description: SANGER: Inhibition of human ACHN cell growth in a cell viability assay.

BFTC-905 = test: cells; conditions: Homo sapiens
Description: SANGER: Inhibition of human BFTC-905 cell growth in a cell viability assay.

BEN = test: cells; conditions: Homo sapiens;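 further: growth inhibition of the BEN cell line, read out with a cell viability assay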
Description: SANGER: Inhibition of human BEN cell growth in a cell viability assay.

A2058 = test: cells; conditions: Homo sapiens;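 further: reduction of A2058 cell growth, read out with a viability assay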
Description: SANGER: Inhibition of human A2058 cell growth in a cell viability assay.

IM-9 = test: SANGER: Inhibition of human IM-9 cell growth in a cell viability assay.
NCI-H719 = test: cells; conditions: Homo sapiens;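 further: growth inhibition of the cultured cell line, read out with a viability assay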
Description: SANGER: Inhibition of human NCI-H719 cell growth in a cell viability assay.

COLO-680N = test: cells; conditions: Homo sapiens;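 further: cell viability assay used to measure inhibition of COLO-680N cell growth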
Description: SANGER: Inhibition of human COLO-680N cell growth in a cell viability assay.

HO-1-N-1 = test: cells; conditions: Homo sapiens;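 further: growth inhibition of human HO-1-N-1 cells, read out with a cell viability assay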
Description: SANGER: Inhibition of human HO-1-N-1 cell growth in a cell viability assay.

SiHa = test: cells; conditions: Homo sapiens;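 further: Viability-based readout of growth inhibition in SiHa cells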
Description: SANGER: Inhibition of human SiHa cell growth in a cell viability assay.

G-401 = test: cells; conditions: Homo sapiens
Description: SANGER: Inhibition of human G-401 cell growth in a cell viability assay.

SCC-4 = test: cells; conditions: Homo sapiens;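 further: growth inhibition of human SCC-4 cells, read out as cell viability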
Description: SANGER: Inhibition of human SCC-4 cell growth in a cell viability assay.

NCI-H1623 = test: cells; conditions: Homo sapiens;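 further: cell viability assay used as the read-out for growth inhibition of NCI-H1623 cells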
Description: SANGER: Inhibition of human NCI-H1623 cell growth in a cell viability assay.

SK-MEL-30 = test: cells; conditions: Homo sapiens;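 further: growth inhibition of SK-MEL-30 cells, determined with a cell viability assay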
Description: SANGER: Inhibition of human SK-MEL-30 cell growth in a cell viability assay.

SW948 = test: cells; conditions: Homo sapiens;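 further: growth inhibition of SW948 cells, read out with a cell viability assay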
Description: SANGER: Inhibition of human SW948 cell growth in a cell viability assay.

SK-N-AS = test: cells; conditions: Homo sapiens;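 further: growth inhibition of human SK-N-AS cells, measured with a cell viability assay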
Description: SANGER: Inhibition of human SK-N-AS cell growth in a cell viability assay.

NY = test: cells; conditions: Homo sapiens
Description: SANGER: Inhibition of human NY cell growth in a cell viability assay.

HT-1376 = test: cells; conditions: Homo sapiens
Description: SANGER: Inhibition of human HT-1376 cell growth in a cell viability assay.

DoTc2-4510 = test: cells; conditions: Homo sapiens
HCC1569 = test: cells; conditions: Homo sapiens;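 further: growth inhibition of human HCC1569 cells, read out with a cell viability assay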
Description: SANGER: Inhibition of human HCC1569 cell growth in a cell viability assay.

SF-295 = test: cells; conditions: Homo sapiens;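 further: growth inhibition of SF-295 cells, read out with a cell viability assay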
Description: SANGER: Inhibition of human SF295 cell growth in a cell viability assay.

UACC-812 = test: cells; conditions: Homo sapiens
Description: SANGER: Inhibition of human UACC-812 cell growth in a cell viability assay.

SW1783 = test: cells; conditions: Homo sapiens
Description: SANGER: Inhibition of human SW1783 cell growth in a cell viability assay.

UACC-893 = test: cells; conditions: Homo sapiens
Description: SANGER: Inhibition of human UACC-893 cell growth in a cell viability assay.

769-P = test: cells; conditions: Homo sapiens
Description: SANGER: Inhibition of human 769-P cell growth in a cell viability assay.

SR = test: cells; conditions: Homo sapiens
Description: SANGER: Inhibition of human SR cell growth in a cell viability assay.

WSU-NHL = test: cells; conditions: Homo sapiens;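 further: growth inhibition of human WSU-NHL cells, read out with a cell viability assay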
Description: SANGER: Inhibition of human WSU-NHL cell growth in a cell viability assay.

BT-20 = test: cells; conditions: Homo sapiens;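 further: cell viability assay measuring suppression of growth in human BT-20 cells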
Description: SANGER: Inhibition of human BT-20 cell growth in a cell viability assay.

NCI-H2170 = test: cells; conditions: Homo sapiens;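 further: cell viability assay measuring growth inhibition of human NCI-H2170 cancer cells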
Description: SANGER: Inhibition of human NCI-H2170 cell growth in a cell viability assay.

HCT-15 = test: cells; conditions: Homo sapiens;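 further: cell viability readout, IC50 reflecting suppression of HCT-15 cell growth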
Description: SANGER: Inhibition of human HCT-15 cell growth in a cell viability assay.

NCI-H596 = test: cells; conditions: Homo sapiens;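 further: growth inhibition of NCI-H596 cells, read out with a cell viability assay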
Description: SANGER: Inhibition of human NCI-H596 cell growth in a cell viability assay.

FaDu = test: cells; conditions: Homo sapiens;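 further: cell viability readout of growth inhibition in FaDu cells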
Description: SANGER: Inhibition of human FADU cell growth in a cell viability assay.

HSC-3 = test: cells; conditions: Homo sapiens
Description: SANGER: Inhibition of human HSC-3 cell growth in a cell viability assay.

SCLC-21H = test: cells; conditions: Homo sapiens;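 further: growth inhibition of cultured human SCLC-21H cells, read out with a cell viability assay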
Description: SANGER: Inhibition of human SCLC-21H cell growth in a cell viability assay.

RPMI-6666 = test: cells; conditions: Homo sapiens
Description: SANGER: Inhibition of human RPMI-6666 cell growth in a cell viability assay.

Calu-3 = test: cells; conditions: Homo sapiens;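 further: growth inhibition of human Calu-3 cells, determined with a cell viability assay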
Description: SANGER: Inhibition of human Calu-3 cell growth in a cell viability assay.

U-118-MG = test: cells; conditions: Homo sapiens
Description: SANGER: Inhibition of human U-118-MG cell growth in a cell viability assay.

HCC2157 = test: cells; conditions: Homo sapiens;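 further: growth inhibition of the cancer cell line, read out as cell viability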
Description: SANGER: Inhibition of human HCC2157 cell growth in a cell viability assay.

8305C = test: cells; conditions: Homo sapiens
Description: SANGER: Inhibition of human 8305C cell growth in a cell viability assay.

NCI-H1882 = test: cells; conditions: Homo sapiens;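 further: growth inhibition of the cell line, determined with a viability assay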
Description: SANGER: Inhibition of human NCI-H1882 cell growth in a cell viability assay.

NCI-H28 = test: cells; conditions: Homo sapiens;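 further: growth inhibition of human NCI-H28 cells, read out as cell viability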
Description: SANGER: Inhibition of human NCI-H28 cell growth in a cell viability assay.

MDA-MB-361 = test: cells; conditions: Homo sapiens
CaR-1 = test: cells; conditions: Homo sapiens;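 further: growth inhibition of human CaR-1 cancer cells, read out with a cell viability assay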
Description: SANGER: Inhibition of human CaR-1 cell growth in a cell viability assay.

SN12C = test: cells; conditions: Homo sapiens;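 further: growth inhibition of human SN12C cells, measured by a cell viability assay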
Description: SANGER: Inhibition of human SN12C cell growth in a cell viability assay.

CAPAN-1 = test: cells; conditions: Homo sapiens;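 further: growth suppression of CAPAN-1 cells, read out by a cell viability assay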
Description: SANGER: Inhibition of human CAPAN-1 cell growth in a cell viability assay.

NCI-H358 = test: cells; conditions: Homo sapiens;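 further: growth inhibition of NCI-H358 human cells, read out with a cell viability assay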
Description: SANGER: Inhibition of human NCI-H358 cell growth in a cell viability assay.

SW13 = test: cells; conditions: Homo sapiens;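 further: IC50 is inhibition of SW13 cell growth, read out with a cell viability assay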
Description: SANGER: Inhibition of human SW13 cell growth in a cell viability assay.

VMRC-RCZ = test: cells; conditions: Homo sapiens
Description: SANGER: Inhibition of human VMRC-RCZ cell growth in a cell viability assay.

SCC-9 = test: cells; conditions: Homo sapiens;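 further: Read-out is a cell viability assay, with values giving inhibition of cell growth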
Description: SANGER: Inhibition of human SCC-9 cell growth in a cell viability assay.

23132-87 = test: cells; conditions: Homo sapiens
Description: SANGER: Inhibition of human 23132-87 cell growth in a cell viability assay.

SW1990 = test: cells; conditions: Homo sapiens
Description: SANGER: Inhibition of human SW1990 cell growth in a cell viability assay.

639-V = test: cells; conditions: Homo sapiens;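 further: growth inhibition of 639-V cells, read out with a cell viability assay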
Description: SANGER: Inhibition of human 639-V cell growth in a cell viability assay.

Capan-2 = test: cells; conditions: Homo sapiens;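 further: Capan-2 cell growth inhibition, read out with a viability assay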
Description: SANGER: Inhibition of human Capan-2 cell growth in a cell viability assay.

LC4-1 = test: cells; conditions: Homo sapiens;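 further: growth inhibition of LC4-1 cells, read out with a cell viability assay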
Description: SANGER: Inhibition of human LC4-1 cell growth in a cell viability assay.

5637 = test: cells; conditions: Homo sapiens
Description: SANGER: Inhibition of human 5637 cell growth in a cell viability assay.

D-392MG = test: cells; conditions: Homo sapiens
MFE-280 = test: cells; conditions: Homo sapiens;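 further: growth inhibition of MFE-280 cells, determined with a cell viability readout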
Description: SANGER: Inhibition of human MFE-280 cell growth in a cell viability assay.

UMC-11 = test: cells; conditions: Homo sapiens;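 further: growth inhibition of UMC-11 cells, read out with a cell viability assay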
Description: SANGER: Inhibition of human UMC-11 cell growth in a cell viability assay.

MDA-MB-415 = test: cells; conditions: Homo sapiens
NCI-H1793 = test: cells; conditions: Homo sapiens;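 further: cell growth inhibition, read out by a cell viability assay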
Description: SANGER: Inhibition of human NCI-H1793 cell growth in a cell viability assay.

SK-OV-3 = test: cells; conditions: Homo sapiens;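 further: growth inhibition of SK-OV-3 human cells, read out with a cell viability assay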
Description: SANGER: Inhibition of human SK-OV-3 cell growth in a cell viability assay.

NB12 = test: cells; conditions: Homo sapiens;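 further: growth inhibition of human NB12 cells, read out by a cell viability assay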
Description: SANGER: Inhibition of human NB12 cell growth in a cell viability assay.

In the case of `CO[C@@]12[C@H](COC(N)=O)C3=C(C(=O)C(C)=C(N)C3=O)N1C[C@@H]1N[C@@H]12` [MITOMYCIN], the IC50 (HSC-2) is reported as 0.0834 µM, the IC50 (SW1088) is reported as 4.67 µM and the IC50 (ACHN) is reported as 0.0721 µM. For the same compound, the IC50 (BFTC-905) was 0.0927 µM, the IC50 (BEN) was 0.935 µM and the IC50 (A2058) was 0.115 µM. For the same compound, the IC50 (IM-9) was 0.0562 µM, the IC50 (NCI-H719) was 0.0351 µM and the IC50 (COLO-680N) was 0.244 µM. For the same compound, the IC50 (HO-1-N-1) was 0.441 µM, the IC50 (SiHa) was 1.89 µM and the IC50 (G-401) was 0.634 µM. For the same compound, the IC50 (SCC-4) was 0.388 µM, the IC50 (NCI-H1623) was 1.01 µM and the IC50 (SK-MEL-30) was 0.474 µM. The IC50 (SW948) was 3.75 µM, the IC50 (SK-N-AS) was 1.79 µM and the IC50 (NY) was 0.657 µM. It also gave an IC50 (HT-1376) of 0.967 µM, an IC50 (DoTc2-4510) of 0.18 µM and an IC50 (HCC1569) of 0.645 µM. The IC50 (SF-295) was < 0.0625 µM, the IC50 (UACC-812) was > 16 µM and the IC50 (SW1783) was 0.0386 µM. For the same compound, the IC50 (UACC-893) was 0.418 µM, the IC50 (769-P) was < 0.0625 µM and the IC50 (SR) was < 0.0625 µM. For the same compound, the IC50 (WSU-NHL) was 0.192 µM, the IC50 (BT-20) was 0.312 µM and the IC50 (NCI-H2170) was < 0.0625 µM. For the same compound, the IC50 (HCT-15) was 0.465 µM, the IC50 (NCI-H596) was 1.54 µM and the IC50 (FaDu) was 0.128 µM. The IC50 (HSC-3) was 0.0755 µM, the IC50 (SCLC-21H) was 0.963 µM and the IC50 (RPMI-6666) was 0.22 µM. The IC50 (Calu-3) was 0.321 µM, the IC50 (U-118-MG) was 3.14 µM and the IC50 (HCC2157) was 0.727 µM. It also gave an IC50 (8305C) of 0.156 µM, an IC50 (NCI-H1882) of 0.257 µM and an IC50 (NCI-H28) of 2.44 µM. For the same compound, the IC50 (MDA-MB-361) was 0.809 µM, the IC50 (CaR-1) was 0.469 µM and the IC50 (SN12C) was 3.46 µM. For the same compound, the IC50 (CAPAN-1) was 0.116 µM, the IC50 (NCI-H358) was 0.276 µM and the IC50 (SW13) was 0.642 µM. The IC50 (VMRC-RCZ) was 0.199 µM, the IC50 (SCC-9) was 3.79 µM and the IC50 (23132-87) was 0.0305 µM. The IC50 (SW1990) was 0.637 µM, the IC50 (639-V) was < 0.0625 µM and the IC50 (Capan-2) was 2.79 µM. For the same compound, the IC50 (LC4-1) was 1.24 µM, the IC50 5637 was 0.0319 µM and the IC50 (D-392MG) was 6.68 µM. For the same compound, the IC50 (MFE-280) was 8.35 µM, the IC50 (UMC-11) was 0.567 µM and the IC50 (MDA-MB-415) was 0.724 µM. For the same compound, the IC50 (NCI-H1793) was 1.81 µM, the IC50 (SK-OV-3) was 0.143 µM and the IC50 (NB12) was 1.2 µM.
